Source: ChEMBL document CHEMBL2321781, “Synthesis and in vitro antimalarial testing of neocryptolepines: SAR study for improved activity by introduction and modifications of side chains at C2 and C11 on indolo[2,3-b]quinolines” (J Med Chem, 2013)
The source made the active and inactive calls. The rule behind the calls is not given here.

Tests used:
[1] = tested on: Trypanosoma cruzi; assay: Antiparasitic activity against Trypanosoma cruzi Tulahuen C2C4 expressing beta-galactosidase infected in rat L6 cells after 96 hrs; type: functional, organism-based; conditions: Tulahuen C2C4, L6, 96 h
[2] = Selectivity index, ratio of IC50 for rat L6 cells to IC50 for chloroquine-sensitive Plasmodium falciparum NF54; type: toxicity, cell-based; conditions: read-out: Ratio IC50
[3] = Toxicity against rat L6 cells after 72 hrs by Alamar blue assay; type: cell-based
[4] = tested on: Plasmodium falciparum; assay: microbe, parasite or virus in culture; conditions: NF54
Description: Antimalarial activity against chloroquine-sensitive Plasmodium falciparum NF54 after 72 hrs by [3H]hypoxanthine incorporation assay

[5] = Selectivity index, ratio of IC50 for rat L6 cells to IC50 for chloroquine-resistant Plasmodium falciparum K1; type: toxicity, cell-based; conditions: read-out: Ratio IC50
[6] = tested on: Plasmodium falciparum; assay: Antimalarial activity against chloroquine-resistant Plasmodium falciparum K1 after 72 hrs by [3H]hypoxanthine incorporation assay; type: functional, organism-based
[7] = tested on: Mus musculus; assay: Toxicity in Plasmodium berghei ANKA infected Swiss mouse assessed as weight loss at 50 mg/kg, ip qd for 4 days; type: organism-based; design: dose 50 mg/kg, route intraperitoneal; conditions: in vivo, 96 h
[8] = tested on: Plasmodium berghei; assay: Antimalarial activity against Plasmodium berghei ANKA infected in Swiss mouse assessed as reduction parasitaemia at 50 mg/kg, ip qd for 4 days measured 24 hrs after last treatment; type: functional
[9] = tested on: Leishmania donovani; assay: Antiparasitic activity against Leishmania donovani MHOM/ET/67/L82 axenic amastigotes after 70 hrs by Alamar blue assay; type: functional, organism-based; conditions: MHOM/ET/67/L82, 70 h
[10] = tested on: Trypanosoma brucei rhodesiense; assay: Antiparasitic activity against Trypanosoma brucei rhodesiense STIB900 bloodstream forms incubated for 70 hrs by Alamar blue assay; type: functional, organism-based; conditions: STIB900, 70 h

For `O=C(Cn1ccnc1[N+](=O)[O-])NCc1ccccc1` [BENZNIDAZOLE], the IC50 [1] was 1610 nM.
In the case of `Cn1c2nc3ccccc3c-2c(NCCCN)c2cc(Cl)ccc21`, the selectivity ratio [2] is reported as 22.8, the IC50 at 72 h [3] is reported as 269 nM and the IC50 [4] is reported as 11.8 nM.
With `Cn1c2nc3ccccc3c-2c(NCCCN2C(=O)CCSC2c2ccc(F)cc2)c2ccccc21` (stereo unspecified) the selectivity ratio [5] was 24.3, the IC50 [6] was 112 nM and the selectivity ratio [2] was 71.6. The IC50 at 72 h [3] was 2730 nM and the IC50 [4] was 38.1 nM.
With `Cn1c2nc3ccccc3c-2c(NCCCNC(=O)Nc2ccccc2)c2cc(Cl)ccc21` the Activity [7] was “Toxic”, the Activity [8] was “inactive” and the selectivity ratio [5] was 141. For the same compound, the IC50 [6] was 21.8 nM, the selectivity ratio [2] was 1400 and the IC50 at 72 h [3] was 3080 nM. The IC50 [4] was 2.2 nM.
`Cn1c2nc3ccccc3c-2c(NCCCN)c2ccccc21` gave a selectivity ratio [5] of 9.4, an IC50 [6] of 29.6 nM and a selectivity ratio [2] of 3.5. For the same compound, the IC50 at 72 h [3] was 279 nM and the IC50 [4] was 78.8 nM.
`CCCCNC(=O)NCCCNc1c2c3ccccc3nc-2n(C)c2ccccc12` gave a selectivity ratio [2] of 16.7, an IC50 at 72 h [3] of 1740 nM and an IC50 [4] of 104 nM.
With `Cn1c2nc3ccccc3c-2c(NCCCN)c2cc(Br)ccc21` the selectivity ratio [2] was 24.8, the IC50 at 72 h [3] was 258 nM and the IC50 [4] was 10.4 nM.
Work on `CN(C)c1ccc(C2SCC(=O)N2CCCNc2c3c4ccccc4nc-3n(C)c3ccccc23)cc1` (stereo unspecified) yielded an IC50 [9] of 26100 nM, an IC50 [1] of 2730 nM and an IC50 [10] of 1370 nM. For the same compound, the selectivity ratio [5] was 24.8, the IC50 [6] was 143 nM and the selectivity ratio [2] was 64.7. The IC50 at 72 h [3] was 3550 nM and the IC50 [4] was 54.9 nM.
With `Cn1c2nc3ccccc3c-2c(NCCCN)c2cc(F)ccc21` the selectivity ratio [2] was 6.8, the IC50 at 72 h [3] was 338 nM and the IC50 [4] was 49.6 nM.
Work on `Cn1c2nc3ccccc3c-2c(NCCCNC(=O)Nc2ccccc2)c2cc(F)ccc21` yielded a selectivity ratio [5] of 11.4, an IC50 [6] of 313 nM and a selectivity ratio [2] of 143. It also gave an IC50 at 72 h [3] of 3560 nM and an IC50 [4] of 24.9 nM.
`C[C@@H]1CC[C@H]2[C@@H](C)C(=O)O[C@@H]3O[C@@]4(C)CC[C@@H]1[C@]32OO4` [ARTEMISININ] showed an IC50 [6] of 2.8 nM and an IC50 [4] of 4.3 nM.
In the case of `Cn1c2nc3ccccc3c-2c(NCCCNC(=O)Nc2ccccc2)c2cc(Br)ccc21`, the selectivity ratio [5] is reported as 238, the IC50 [6] is reported as 11.9 nM and the selectivity ratio [2] is reported as 706. The IC50 at 72 h [3] was 2830 nM and the IC50 [4] was 4 nM.
In the case of `Cn1c2nc3ccccc3c-2c(NCCCNC(=S)Nc2ccccc2)c2ccccc21`, the Activity [7] is reported as “Toxic”, the Activity ([8]; route intraperitoneal) is reported as 15.4% and the IC50 [9] is reported as 79200 nM. For the same compound, the IC50 [1] was 6120 nM, the IC50 [10] was 589 nM and the selectivity ratio [5] was 11. The IC50 [6] was 112 nM, the selectivity ratio [2] was 135 and the IC50 at 72 h [3] was 1230 nM. It also gave an IC50 [4] of 9.1 nM.
For `Cn1c2nc3ccccc3c-2c(NCCCNC(=O)Nc2ccccc2)c2cc([N+](=O)[O-])ccc21`, the selectivity ratio [5] was 91.4, the IC50 [6] was 29.9 nM and the selectivity ratio [2] was 1300. The IC50 at 72 h [3] was 2730 nM and the IC50 [4] was 2.1 nM.
`Cn1c2nc3ccccc3c-2c(NCCCNC(=O)Nc2ccccc2)c2cc(C(F)(F)F)ccc21` showed a selectivity ratio [5] of 26.3, an IC50 [6] of 48.8 nM and a selectivity ratio [2] of 313. For the same compound, the IC50 at 72 h [3] was 1280 nM and the IC50 [4] was 4.1 nM.
`Cn1c2nc3ccccc3c-2c(NCCCN)c2cc(C(F)(F)F)ccc21` gave a selectivity ratio [2] of 86.3, an IC50 at 72 h [3] of 924 nM and an IC50 [4] of 10.7 nM.
Compound `Cn1c2nc3ccccc3c-2cc2ccccc21` [NEOCRYPTOLEPINE] has a selectivity ratio [5] of 1.9, an IC50 [6] of 1700 nM and a selectivity ratio [2] of 2. For the same compound, the IC50 at 72 h [3] was 3190 nM and the IC50 [4] was 1580 nM.
In the case of `Cn1c2nc3ccccc3c-2c(NCCCNC(=O)c2cccs2)c2ccccc21`, the selectivity ratio [2] is reported as 17.3, the IC50 at 72 h [3] is reported as 4460 nM and the IC50 [4] is reported as 258 nM.
For `Cn1c2nc3ccccc3c-2c(NCCCNS(=O)(=O)c2ccccc2)c2ccccc21`, the IC50 [9] was 58000 nM, the IC50 [1] was 1600 nM and the IC50 [10] was 164 nM. It also gave a selectivity ratio [5] of 0.5, an IC50 [6] of 124 nM and a selectivity ratio [2] of 1. It also gave an IC50 at 72 h [3] of 65.2 nM and an IC50 [4] of 63 nM.
Compound `Cn1c2nc3ccccc3c-2c(NCCCN)c2cc([N+](=O)[O-])ccc21` has a selectivity ratio [2] of 18.3, an IC50 at 72 h [3] of 209 nM and an IC50 [4] of 11.4 nM.
Work on `COc1ccc2c(c1)c(NCCCNC(=O)Nc1ccccc1)c1c3ccccc3nc-1n2C` yielded a selectivity ratio [5] of 1240, an IC50 [6] of 2.2 nM and a selectivity ratio [2] of 621. It also gave an IC50 at 72 h [3] of 2730 nM and an IC50 [4] of 4.4 nM.
With `Cn1c2nc3ccccc3c-2c(NCCCNC(=O)Nc2ccccc2)c2ccccc21` the Activity [7] was “Toxic”, the Activity ([8]; route intraperitoneal) was 22.1% and the IC50 [9] was 97500 nM. For the same compound, the IC50 [1] was 10600 nM, the IC50 [10] was 607 nM and the selectivity ratio [5] was 132. It also gave an IC50 [6] of 9.4 nM, a selectivity ratio [2] of 58.4 and an IC50 at 72 h [3] of 1240 nM. The IC50 [4] was 21.3 nM.
Work on `Cn1c2nc3ccccc3c-2c(NCCCCCCN)c2ccccc21` yielded a selectivity ratio [2] of 7.1, an IC50 at 72 h [3] of 693 nM and an IC50 [4] of 98.1 nM.
Compound `Cn1c2nc3ccccc3c-2c(NCCCCCCNC(=O)Nc2ccccc2)c2ccccc21` has a selectivity ratio [2] of 15.4, an IC50 at 72 h [3] of 397 nM and an IC50 [4] of 25.8 nM.
Work on `Cn1c2nc3ccccc3c-2c(NCCCNS(=O)(=O)c2ccc3ccccc3c2)c2ccccc21` yielded a selectivity ratio [2] of 1.3, an IC50 at 72 h [3] of 18.2 nM and an IC50 [4] of 14.2 nM.
`Cn1c2nc3ccccc3c-2c(Cl)c2ccccc21` [11-CHLORONEOCRYPTOLEPINE] showed a selectivity ratio [5] of 0.7, an IC50 [6] of 2000 nM and a selectivity ratio [2] of 0.7. The IC50 at 72 h [3] was 1460 nM and the IC50 [4] was 2060 nM.
In the case of `COc1ccc2c(c1)c(NCCCN)c1c3ccccc3nc-1n2C`, the selectivity ratio [2] is reported as 5.1, the IC50 at 72 h [3] is reported as 383 nM and the IC50 [4] is reported as 74.8 nM.
With `Cn1c2nc3ccccc3c-2c(NCCCN2C(=O)c3ccccc3SC2c2ccc(Cl)cc2)c2ccccc21` (stereo unspecified) the IC50 [9] was 9750 nM, the IC50 [1] was 2360 nM and the IC50 [10] was 868 nM. The selectivity ratio [5] was 51.6, the IC50 [6] was 21.3 nM and the selectivity ratio [2] was 41.3. It also gave an IC50 at 72 h [3] of 1100 nM and an IC50 [4] of 26.6 nM.
Compound `Cn1c2nc3ccccc3c-2c(NCCCN2C(=O)CSC2c2ccc(Cl)cc2)c2ccccc21` (stereo unspecified) has a selectivity ratio [5] of 24.2, an IC50 [6] of 144 nM and a selectivity ratio [2] of 54.4. For the same compound, the IC50 at 72 h [3] was 3470 nM and the IC50 [4] was 63.9 nM.
For `Cn1c2nc3ccccc3c-2c(NCCCN2C(=O)CCSC2c2ccc(Cl)cc2)c2ccccc21` (stereo unspecified), the IC50 [9] was 13000 nM, the IC50 [1] was 3180 nM and the IC50 [10] was 548 nM. It also gave a selectivity ratio [5] of 86.6, an IC50 [6] of 38.8 nM and a selectivity ratio [2] of 64.1. The IC50 at 72 h [3] was 3360 nM and the IC50 [4] was 52.4 nM.
In the case of `CCCCCCCCCCCCCCCCOP(=O)([O-])OCC[N+](C)(C)C` [MILTEFOSINE], the IC50 [9] is reported as 361 nM.
